Test results reported in US20110172296A1, “MODULATION OF TRANSFORMING GROWTH FACTOR-BETA 1 EXPRESSION” (priority 2010, published 2011).
Where “and” joins values, the source holds several entries; their conditions need not be identical. Equal values may be shown once. In the oligonucleotide strings, read from the 5' end, every base follows the letter of its sugar. An asterisk marks phosphorothioate; unmarked linkages are phosphodiester. Other units and linkages are bracketed, terminal groups are in braces. A string of capitals states the bases alone. e = 2'-O-(2-methoxyethyl) (MOE); [5mC] = 5-methylcytosine; d = 2'-deoxy (DNA)

Tested on: human TGF-beta1 mRNA
Experiment: Antisense inhibition of human TGF-beta1 mRNA in HuVEC cells, single 10 nM dose, Lipofectamine 2000 (Example 2)
Format: cell-based
Conditions: for % inhibition: 10 nM oligonucleotide, HuVEC, relative to untreated control cells, gapmers targeted to SEQ ID NO: 2; for inhibition of a TGF-beta1 mRNA: threshold lists of Oligo IDs, 10 nM
Procedure, shortened: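 Percent inhibition relative to untreated controls, from qRT-PCR of mRNA corrected for total RNA (RIBOGREEN). Cells were exposed 4 h to 10 nM phosphorothioate 2-13-5 MOE gapmers with Lipofectamine 2000 at 5,000 cells/well. RNA was harvested after roughly 24 h recovery.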

| Substance | % inhibition [%] | inhibition of a TGF-beta1 mRNA |
| --- | --- | --- |
| 414068 (antisense eT*e[5mC]*dT*dG*d[5mC]*dA*dA*d[5mC]*dA*dT*d[5mC]*d[5mC]*dA*dA*dA*eA*eT*eA*eG*eT) [compound 414068] | 53 |  |
| 414069 (antisense e[5mC]*eT*dA*dT*dG*dA*dG*dT*dT*dA*dA*d[5mC]*dA*dT*dT*e[5mC]*e[5mC]*e[5mC]*eT*e[5mC]) [compound 414069] | 62 | 60% |
| 414070 (antisense eG*eA*d[5mC]*dT*dA*dA*dT*dG*dT*dT*d[5mC]*dT*dA*dT*dA*eA*eA*e[5mC]*e[5mC]*e[5mC]) [compound 414070] | 54 |  |
| 414071 (antisense eT*eA*dG*dA*dA*dG*dT*d[5mC]*dA*dT*dT*dT*d[5mC]*dT*dA*eA*eT*eG*eA*eT) [compound 414071] | 0 |  |
| 414072 (antisense eG*e[5mC]*d[5mC]*dG*dA*dA*dG*dG*dT*dG*dT*dT*dT*dT*d[5mC]*eT*eT*eG*e[5mC]*e[5mC]) [compound 414072] | 48 |  |
| 414073 (antisense e[5mC]*eT*dT*d[5mC]*d[5mC]*d[5mC]*d[5mC]*dA*dA*dA*d[5mC]*dA*dG*dG*d[5mC]*eT*eT*e[5mC]*e[5mC]*eA) [compound 414073] | 65 | 60% and 65% |
| 414074 (antisense eA*eA*dG*dT*dG*dA*d[5mC]*d[5mC]*d[5mC]*d[5mC]*dA*dG*dG*dA*d[5mC]*eA*eA*eA*e[5mC]*eA) [compound 414074] | 24 |  |
| 414075 (antisense eG*eA*dT*dT*dA*dG*d[5mC]*d[5mC]*dA*dA*dT*d[5mC]*dA*d[5mC]*dT*e[5mC]*eA*eG*eG*eT) [compound 414075] | 75 | 60% and 65% and 70% and 75% |
| 414076 (antisense eG*eT*dT*d[5mC]*d[5mC]*d[5mC]*d[5mC]*dA*dG*d[5mC]*dT*dA*d[5mC]*d[5mC]*dT*eA*eG*e[5mC]*e[5mC]*eA) [compound 414076] | 57 |  |
| 414077 (antisense eT*e[5mC]*d[5mC]*dA*dG*dG*d[5mC]*d[5mC]*dT*dT*dT*dG*d[5mC]*dA*d[5mC]*eA*eG*eG*e[5mC]*eT) [compound 414077] | 71 | 60% and 65% and 70% |
| 414078 (antisense eT*eG*dG*dG*d[5mC]*dA*dA*dT*dT*dA*dT*dT*dG*dA*dA*eT*eA*eA*eA*eA) [compound 414078] | 18 |  |
| 414079 (antisense eG*eT*d[5mC]*dT*dT*dG*dG*dT*dT*dA*dT*d[5mC]*dA*d[5mC]*dT*eA*eT*eG*eT*e[5mC]) [compound 414079] | 62 | 60% |
| 414080 (antisense eT*eT*dG*dA*d[5mC]*d[5mC]*dA*dA*dG*dA*d[5mC]*dA*dG*dA*dT*eG*eA*eG*e[5mC]*eT) [compound 414080] | 54 |  |
| 414081 (antisense eG*e[5mC]*dT*dT*dG*dG*dG*dA*d[5mC]*dT*d[5mC]*dA*dG*d[5mC]*dA*eT*eT*eG*eA*e[5mC]) [compound 414081] | 49 |  |
| 414082 (antisense eG*eA*dG*dA*dG*dG*dG*dA*dA*dG*d[5mC]*d[5mC]*dA*dG*dT*e[5mC]*eT*eG*eA*eG) [compound 414082] | 19 |  |
| 414083 (antisense eA*eA*d[5mC]*d[5mC]*dT*dG*dG*dA*dG*d[5mC]*dA*d[5mC]*d[5mC]*dT*dG*eG*eT*e[5mC]*eA*eG) [compound 414083] | 42 |  |
| 414084 (antisense eT*e[5mC]*dA*dG*d[5mC]*d[5mC]*d[5mC]*dA*dA*dG*d[5mC]*dA*d[5mC]*dA*dG*e[5mC]*eA*eG*e[5mC]*eA) [compound 414084] | 75 | 60% and 65% and 70% and 75% |
| 414085 (antisense e[5mC]*eT*dA*dA*dA*dG*dG*dA*dG*dA*d[5mC]*dA*dG*dA*dT*eG*e[5mC]*eT*e[5mC]*eA) [compound 414085] | 66 | 60% and 65% |
| 414086 (antisense eT*eT*dG*dA*dA*dT*dT*d[5mC]*d[5mC]*dA*dA*d[5mC]*dA*dA*dT*e[5mC]*eA*e[5mC]*eA*eG) [compound 414086] | 54 |  |
| 414087 (antisense eG*eT*dG*dA*d[5mC]*d[5mC]*dT*dT*d[5mC]*d[5mC]*dA*dA*d[5mC]*dT*dT*eT*eG*eA*eA*eT) [compound 414087] | 77 | 60% and 65% and 70% and 75% |

| Substance | % inhibition [%] | inhibition of a TGF-beta1 mRNA |
| --- | --- | --- |
| 414088 (antisense eT*eT*d[5mC]*dT*dA*dG*d[5mC]*dA*dT*dT*d[5mC]*dT*dA*dG*dA*eA*eT*e[5mC]*e[5mC]*e[5mC]) [compound 414088] | 66 | 60% and 65% |
| 414089 (antisense eA*eA*dT*dT*d[5mC]*dT*dA*dG*d[5mC]*dA*dT*dT*d[5mC]*dT*dA*eG*eA*eA*eT*e[5mC]) [compound 414089] | 18 |  |
| 414090 (antisense eG*eA*dT*dT*d[5mC]*d[5mC]*dA*dA*dT*dG*dT*dT*dT*d[5mC]*dA*eG*e[5mC]*eT*eT*eT) [compound 414090] | 80 | 60% and 65% and 70% and 75% and 80% |
| 414091 (antisense eG*eG*dT*dA*dT*d[5mC]*d[5mC]*dA*d[5mC]*dA*dA*dT*dT*dG*dG*e[5mC]*e[5mC]*eA*eG*eT) [compound 414091] | 64 | 60% |
| 414092 (antisense eG*eA*dG*dA*dT*dA*d[5mC]*d[5mC]*dA*dA*dT*dA*dT*dT*d[5mC]*eT*eG*e[5mC]*eT*eT) [compound 414092] | 86 | 60% and 65% and 70% and 75% and 80% and 85% |
| 414093 (antisense eA*eA*d[5mC]*dA*dT*dT*d[5mC]*d[5mC]*dA*dA*d[5mC]*dA*d[5mC]*dT*dG*eA*eG*eT*eT*e[5mC]) [compound 414093] | 68 | 60% and 65% |
| 414094 (antisense eT*e[5mC]*dA*dA*dG*dA*dG*dG*dT*dT*d[5mC]*dA*dA*dA*d[5mC]*eT*eG*eA*e[5mC]*eA) [compound 414094] | 67 | 60% and 65% |
| 414095 (antisense eA*eA*dT*dT*d[5mC]*d[5mC]*dA*dG*dT*dA*dT*dG*d[5mC]*d[5mC]*dA*eG*eT*eA*eT*eT) [compound 414095] | 46 |  |
| 414096 (antisense e[5mC]*e[5mC]*dA*dA*d[5mC]*d[5mC]*dT*dT*dT*dG*dA*dG*dG*dA*dT*e[5mC]*eT*eT*eG*eG) [compound 414096] | 74 | 60% and 65% and 70% |
| 414097 (antisense eG*eA*dA*dT*d[5mC]*d[5mC]*dA*dA*d[5mC]*dA*dT*dT*dT*d[5mC]*dA*eG*e[5mC]*eT*eT*eT) [compound 414097] | 74 | 60% and 65% and 70% |
| 414098 (antisense eA*eA*dG*dG*dG*dA*dG*dG*dA*dA*dT*dA*dA*dG*dG*eT*e[5mC]*eA*eG*eA) [compound 414098] | 70 | 60% and 65% and 70% |
| 414099 (antisense eG*eT*dA*dG*dG*d[5mC]*dT*dA*dT*dT*dA*dA*dT*dA*dG*eT*eT*eA*eA*eG) [compound 414099] | 37 |  |
| 414100 (antisense eT*eT*d[5mC]*d[5mC]*dA*d[5mC]*dT*d[5mC]*dA*dA*dT*dG*dA*dA*dT*eG*eG*eA*eA*eA) [compound 414100] | 48 |  |
| 414101 (antisense eG*eA*d[5mC]*dA*dG*d[5mC]*dA*dA*dG*dA*d[5mC]*d[5mC]*dA*dA*d[5mC]*eA*e[5mC]*e[5mC]*eT*eT) [compound 414101] | 70 | 60% and 65% and 70% |
| 414103 (antisense eA*eT*dT*d[5mC]*dA*dA*dG*dT*dA*dA*dG*dG*dT*d[5mC]*dT*eA*e[5mC]*eA*e[5mC]*eA) [compound 414103] | 58 |  |
| 414104 (antisense eA*eG*dG*dA*dT*dT*d[5mC]*dA*dA*dG*dT*dA*dA*dG*dG*eT*e[5mC]*eT*eA*e[5mC]) [compound 414104] | 61 | 60% |
| 414105 (antisense eG*eA*dT*dA*dT*d[5mC]*dT*dA*dG*dA*dG*dG*dA*dA*dT*eA*eT*e[5mC]*eT*eA) [compound 414105] | 27 |  |
| 414106 (antisense eA*eT*dT*d[5mC]*d[5mC]*dT*dT*dG*dA*dT*dA*dT*d[5mC]*dT*dA*eG*eA*eG*eG*eA) [compound 414106] | 74 | 60% and 65% and 70% |
| 414107 (antisense eT*eT*d[5mC]*dA*dA*dA*dT*dG*dT*dA*dT*d[5mC]*dT*d[5mC]*dT*eA*eA*eT*eT*eA) [compound 414107] | 7 |  |
| 414108 (antisense e[5mC]*eA*d[5mC]*dA*dT*dG*d[5mC]*dA*dA*dT*d[5mC]*d[5mC]*dA*d[5mC]*d[5mC]*eG*eT*eG*eT*eT) [compound 414108] | 61 | 60% |
